Experimental data as given in patent publication US20230128730A1, “OXYGEN IMPERMEABLE PORPHYRIN PHOTOSENSITIZER FILM COMPOSITION FOR APPLICATION TO PLANTS” (SUNCOR ENERGY INC., priority 2020, published 2023).
Structures can show the parent of a compound that is named as a salt. Where two headings read alike, the source gives them in different places.

Tests used:
[1] = tested on: Sclerotinia homoeocarpa; experiment: Broth protocol: control of dollar spot fungus with modified chlorins; type: cell-based; settings: for inhibition at 10 µM / inhibition at 100 µM: Clarireedia homoeocarpa; for Inhibition, % (Dark) / Inhibition, % (Light): Broth data; for Inhibition, % (Light): light 1 hour, about 1000 μmol/m2/s PAR
Description: Broth protocol: control of dollar spot fungus (Sclerotinia homoeocarpa) with modified chlorins was assessed. Treatments were prepared in Phosphate Buffered Saline (PBS) in 24 well plates (in duplicates for light vs. dark incubation) at desired concentrations. Then, a 5 mm diameter plug of a Sclerotinia homoeocarpa isolate (3 isolates total tested) was inoculated into the PBS and incubated at 21° C. in the dark for 2 hours. After 2 hours, one of the 24 well plates (with isolates in triplicate) was left in the dark and one 24 well plate was placed under illumination for 1 hour (all at 21° C.). Following illumination, fungal plugs were removed from PBS, blotted dry on sterile filter paper and transferred to non-amended Potato Dextrose Agar (PDA). Radial growth of the fungus was monitored daily until the growth of S. homoeocarpa reached the edge of the Petri-dish. Illumination was provided by LED lights emitting about 1000 μmol/m2/s photosynthetically active radiation (PAR).

[2] = Method A: photostability in a non-hydrated state (solid state), dried films under LED light; type: physicochemical
Description: Fifty microlitres of each formulation was pipetted into 12 wells of a 96-well clear-bottom black microplate (Thomas Scientific, Swedesboro, N.J.) and dried into thin films using a dehydrator (Gourmia GFD1680) at a temperature of 45° C. for 3 h. At the beginning of the experiment, the microplate was placed under a Heliospectra RX30 LED light array (Heliospectra, San […], Calif.). The LED array was adjusted such that the microplates received on average 1300 μmol/m^2/s of light intensity. The microplate was tightly covered with aluminum foil and at select intervals peeled back to irradiate films with either 0 h, 24 h, 48 h or 72 h of light. […] An absorbance spectral scan was conducted on the microplate (350-750 nm) using a plate reader (Spectramax M2E, Molecular Devices, San Jose, Calif.) and the peak intensity was monitored at 24 h, 48 h and/or 72 h timepoints and compared with the corresponding 0 h timepoint to determine the degree of photodegradation. The % photosensitizer remaining after irradiation was calculated using the following equation: [formula] where Abst is the absorbance peak of the sample receiving t hours of light exposure; Abs0 is the absorbance peak of the sample receiving no light exposure. All data is expressed as mean±standard deviation.

[3] = Method B: photostability in solution (liquid state) under LED light; type: physicochemical
Description: Fifty microlitres of each formulation was pipetted into 12 wells of a 96-well clear-bottom black microplate (Thomas Scientific, Swedesboro, N.J.), followed by the addition of 50 μL dH2O. The sample was sealed with a microplate clear adhesive film to minimize water evaporation. At the beginning of experiment, the microplate was placed under a Heliospectra RX30 LED light array (Heliospectra, San […], Calif.). The LED array was adjusted such that the microplates received on average 1300 μmol/m^2/s of light intensity. […] The % photosensitizer remaining after irradiation was calculated using the following equation: [formula] where Abst is the absorbance peak of the sample receiving t hours of light exposure; Abs0 is the absorbance peak of the sample receiving no light exposure. All data is expressed as mean±standard deviation.

[4] = tested on: Colletotrichum orbiculare ATC20767 (Cgm); experiment: Control of Colletotrichum orbiculare on Nicotiana benthamiana, film-forming formulations applied 48 h before inoculation; type: in vivo; settings: host Nicotiana benthamiana, PVOH 89 kDa, >99% hydrolysis
Description: Control of the fungal plant pathogen Colletotrichum orbiculare ATC20767 (Cgm) on the host plant Nicotiana benthamiana following treatment with formulations containing Magnesium chlorophyllin, sodium salt with hydrogel polymer, polyvinylalcohol 89 kDa (99%+hydrolysis) and phenolic antioxidant vanillin were assessed. Treatments were applied to N. benthamiana plants approximately 48 h prior to inoculation to simulate photodegradation on a leaf surface. Subsequently, with a spore suspension of Cgm was applied to the leaves. Plants were then exposed to light for a 24-hour period followed by dark incubation until disease symptoms were evident on the water-treated control plants. Once disease symptoms were evident, lesions were counted, and leaf area measured in order to determine the number of lesions/cm^2 leaf area. Four replicate plants were used per treatment and plants were randomized under the light source. […]
Control of the fungal plant pathogen Colletotrichum orbiculare ATC20767 (Cgm) on the host plant Nicotiana benthamiana following treatment with formulations containing Magnesium chlorophyllin, sodium salt with hydrogel polymer, polyvinylalcohol 89 kDa (99%+hydrolysis) and phenolic antioxidant tannic acid were assessed. […] Once disease symptoms were evident, lesions were counted, and leaf area measured in order to determine the number of lesions/cm^2 leaf area. […]

[5] = tested on: Pseudomonas syringae v. tabacii; experiment: Inhibition of P. syringae in host plant N. benthamiana by film-forming compositions; type: in vivo; settings: host Nicotiana benthamiana, PVOH 89 kDa, >99% hydrolysis
Description: Two days prior to inoculation, chemical treatments were applied to N. benthamiana plants at the 5-6 leaf stage until run off using a handheld spray bottle delivering a fine spray. Plants sprayed with water were used for Control. Immediately after treatment, plants were randomly placed on a shelf and exposed to LED lights emitting approximately 450 μmol/m2/s photo-synthetically active radiation (PAR) for a 12 h light/12 h dark photoperiod. For inoculation, Pst from a glycerol stock was cultured on Tryptic Soy Agar (TSA) and incubated overnight at 30° C. Bacterial cells were collected from the overnight culture, suspended in de-ionized water and diluted to 1×10^8 CFU/ml followed by the addition of 0.02% (v/v) Silwet L-77. Inoculum was then applied to plants until runoff and the plants covered with transparent plastic domes to maintain 100% relative humidity.
Inoculated plants were randomly placed on a shelf in the Growth room which was maintained at 24° C., and were exposed to a combination of fluorescent and LED lights emitting approximately 250 μmol/m^2/s PAR for an 16 h light/8 h dark photoperiod for 7 days. Entire plants were assessed for disease severity using rating scale of 0-100%. Disease symptoms included yellow lesions, discoloration on foliage, leaf deformation and stunted growth. Four replications per treatment were used in the experiment.

[6] = Thermal stability of MgChln, 2 weeks at 54° C.; type: physicochemical; settings: in dH2O, wrapped in aluminum foil, mean ± SD
Description: These samples were wrapped in aluminum foil and stored in a 54° C. oven for a period of 2 weeks. After the 2-week period, the samples were taken out of the 54° C. oven or -20° C. freezer and assayed using the UV-Visible plate reader (Spectramax M2E, Molecular Devices, San Jose, Calif.) with 12 technical replicates per sample. The degradation of […] as a result of storage at elevated temperature was determined by calculating the % photosensitizer remaining using the following equation: [formula] where Abst is the absorbance peak of the sample after incubation for 2 weeks at 54° C.; Abs0 is the absorbance peak of the sample at the start of experiment without being stored at 54° C. All data is expressed as mean±standard deviation.

[7] = tested on: Sclerotinia homoeocarpa; experiment: Agar protocol: control of dollar spot fungus with modified Ce6; type: cell-based; settings: Agar data, 10 uM
Description: Agar protocol: control of dollar spot fungus (Sclerotinia homoeocarpa) with modified Ce6 was assessed. Treatments were amended into Potato Dextrose Agar (PDA) at desired concentrations. Then, a 5 mm diameter plug of a Sclerotinia homoeocarpa isolate (3 isolates total tested) was inoculated into the center of the amended Petri-dish and incubated at 21° C. in the dark for 24 hours. After 24 hours, one set of Petri-dishes (in triplicate) was left in the dark and one set was placed under illumination for the remainder of the experiment (all at 21° C.). Radial growth of the fungus was monitored daily until the growth of S. homoeocarpa on non-amended PDA reaches the edge of the Petri-dish. Illumination was provided by fluorescent lights emitting about 180 μmol/m2/s photosynthetically active radiation (PAR).

[8] = tested on: Pseudomonas syringae pv. tabaci; experiment: In vitro photodynamic inactivation of Pseudomonas syringae pv. tabaci with modified Ce6; type: cell-based
Description: Experiments were conducted to evaluate control of the gram-negative bacterial plant pathogen Pseudomonas syringae pv. tabaci with modified Ce6. Treatments were prepared in Phosphate Buffered Saline (PBS) in 96 well plates at desired concentrations. A bacterial suspension was inoculated into the PBS and incubated at 28° C. in the dark for 30 min. After 30 min, the 96 well plate was placed under illumination for 1 hour (at 21° C.). A separate plate prepared at the same time was kept in the dark without illumination and served as dark control. Following illumination, bacterial suspensions were serially diluted and 10 μL of each dilution was spread uniformly on Tryptic Soy Agar (TSA) plates and placed in the dark in an incubator at 28° C. for 48 hours. After 48 hours, bacterial colonies were counted and results were log transformed (log colony forming units (CFU)/mL). The relative inactivation was determined by taking the difference between log CFU(PBS control) and log CFU (treatments). Sample Illumination was provided by LED lights (Heliospectra RX30) emitting about 1000 μmol/m^2/s photosynthetically active radiation (PAR).

[9] = tested on: Kentucky bluegrass (Poa pratensis); experiment: Kentucky bluegrass tolerance to salt stress (turf quality); type: in vivo; settings: 170 mM NaCl, 2 salt applications; scale of 1-9 (1=dead, 9=healthy); untreated control 5
Description: Kentucky bluegrass (Poa pratensis) was grown under greenhouse conditions for ˜3 weeks. After 3 weeks, plants were sprayed with formulations and allowed to sit for 24 hours, after which the pots were placed in a 170 mM NaCl solution until the soil was saturated. The salt application was repeated again 7 days later for a total of 2 salt applications. Salinity stress was evaluated based on a turf quality scale of 1-9; where 1=dead, brown turf; 6=minimally acceptable turf quality (based on standards for golf courses or sports fields); and 9=dense, dark green turf (healthy). Data are average of 5 replicates.

[10] = 1 h, read-out: Inhibition, % (Light)
[11] = various tetrapyrroles, PVOH 89 kDa, >99% hydrolysis and tannic acid, 72 h simulated sunlight
[12] = various tetrapyrroles, PVOH 89 kDa, >99% hydrolysis and tannic acid, 6 h simulated light

C=Cc1c(C)c2cc3nc(c(CC(=O)NCCOP(=O)(O)O)c4[nH]c(cc5nc(cc1[nH]2)C(C)=C5CC)c(C)c4C(=O)O)C(CCC(=O)O)C3C (stereo not drawn) [Ce6-mono-EP^15 amide octylammonium salt]
inhibition at 10 µM [1, 10]: 58%
inhibition at 100 µM [1, 10]: 71%
inhibition at 10 µM ([1]; read-out: Inhibition, % (Dark)): 3%
inhibition at 100 µM ([1]; read-out: Inhibition, % (Dark)): -5%

C=CC1=C(C)C2=CC3=NC(=C(CC(=O)[O-])C4=NC(=C(C)C4=C([O-])[O-])C=c4[n-]c(c(C)c4CC)=CC1=N2)C(CCC(=O)[O-])C3C.[H+].[H+].[H+].[Mg+2] (stereo not drawn) [MgChln, Magnesium chlorin e6]
% photosensitizer remaining at 72 h (solid state) ([2]; MgChln, PVOH 89 kDa, >99% hydrolysis, tannic acid, adjuvants, 72 h simulated sunlight): 41.2 ± 2.9%
% photosensitizer remaining at 72 h (solid state) ([2]; MgChln, PVOH 89 kDa, >99% hydrolysis, various antioxidants, 72 h simulated sunlight): 31.6 ± 2.3%
% photosensitizer remaining at 72 h (solid state) ([2]; MgChln, PVOH 89 kDa, >99% hydrolysis, dried film, 72 h light irradiation, mean ± SD): 46.0 ± 1.8%
% photosensitizer remaining at 72 h (solid state) ([2]; MgChln, PVOH 146 kDa, >99% hydrolysis, 72 h simulated sunlight, mean ± SD): 29.1 ± 2%
% photosensitizer remaining at 72 h (solid state) ([2]; MgChln, PVOH of varied molecular weight and degree of hydrolysis, 72 h simulated sunlight, mean ± SD): 45.2 ± 7.1%
% photosensitizer remaining at 72 h (solid state) ([2]; MgChln, various film-forming polymers and tannic acid, 72 h simulated sunlight): 42.4 ± 2.5%
% photosensitizer remaining at 6 h (liquid state) ([3]; MgChln, PVOH 89 kDa, >99% hydrolysis, tannic acid, adjuvants, 6 h simulated light): 31.5 ± 5.3%
% photosensitizer remaining at 6 h (liquid state) ([3]; MgChln, PVOH 89 kDa, >99% hydrolysis, various antioxidants, 6 h simulated light): 20.6 ± 3.9%
% photosensitizer remaining at 6 h (liquid state) ([3]; MgChln, PVOH 146 kDa, >99% hydrolysis, 6 h simulated sunlight, mean ± SD): 35.2 ± 2.1%
% photosensitizer remaining at 6 h (liquid state) ([3]; MgChln, PVOH of varied molecular weight and degree of hydrolysis, 6 h simulated sunlight, mean ± SD): 44.6 ± 9.6%
% photosensitizer remaining at 6 h (liquid state) ([3]; MgChln, various film-forming polymers and tannic acid, 6 h): 27.5 ± 1.8%
% inhibition ([4]; applied about 48 h prior to inoculation): 76%
% Disease inhibition ([4]; sprayed films irradiated 48 h prior to inoculation with fungal spores): 95.1%
% Disease inhibition ([5]; relative to water control): 45.3%
Disease severity, % Mean ([5]; sprayed two days prior to inoculation, rated 7 days after, scale 0-100%, control 80): 43.8%
% Photosensitizer remaining [6]: 62 ± 7%

Aluminum chlorin e6 [Aluminum Ce6Na3]
% photosensitizer remaining at 72 h (solid state) [2, 11]: 91.4 ± 5.5%
% photosensitizer remaining at 6 h (liquid state) [3, 12]: 3.9 ± 0.2%

Chlorin e6, trisodium salt [Ce6Na3, reference compound]
% photosensitizer remaining at 72 h (solid state) [2, 11]: 84.2 ± 7^ %
% photosensitizer remaining at 6 h (liquid state) [3, 12]: 19.4 ± 0.5%
Inhibition, % (Dark) ([7]; dark): 26%
Inhibition, % (Light) ([7]; light about 180 μmol/m2/s PAR): 74%
Inhibition, % (Dark) ([1]; 10 uM): −4%
Inhibition, % (Light) ([1]; 10 uM): 53%
Inhibition, % (Dark) ([1]; 100 uM): 16%
Inhibition, % (Light) ([1]; 100 uM): 66%
Relative Inactivation (log[CFUcontrol mL^−1] − log[CFUtreatment mL^−1]), Dark ([8]; dark control plate): −0.03 ± 0.13 log CFU mL^−1
Relative Inactivation (log[CFUcontrol mL^−1] − log[CFUtreatment mL^−1]), Light ([8]; illumination 1 hour, about 1000 μmol/m^2/s PAR, where no colonies remained value set to 1 CFU/mL): 0.39 ± 0.29 log CFU mL^−1
Turf Quality [9]: 6
